Laboratory results: patent US12667572B2, “Tricyclic compounds useful in the treatment of cancer, autoimmune and inflammatory disorders” (SCHRÖDINGER, INC., priority 2021, dated 2026)

These molecules were tested against T1, full-length MALT1 protein His-MALT1(1-824) (Homo sapiens, UniProt Q9UDY8) (assay: MALT1 protease assay, Assay 2 (1 nM MALT1, Ac-LRSR-AMC substrate)). Settings: 1 nM MALT1, 50 μM Ac-LRSR-AMC, 2 h pre-incubation, 8 hr incubation at RT.
T1 construct: full-length MALT1 protein His-MALT1(1-824); His (N); made in house; host or cells: baculovirus-infected insect cells
T1 sequence (Q9UDY8 1-824): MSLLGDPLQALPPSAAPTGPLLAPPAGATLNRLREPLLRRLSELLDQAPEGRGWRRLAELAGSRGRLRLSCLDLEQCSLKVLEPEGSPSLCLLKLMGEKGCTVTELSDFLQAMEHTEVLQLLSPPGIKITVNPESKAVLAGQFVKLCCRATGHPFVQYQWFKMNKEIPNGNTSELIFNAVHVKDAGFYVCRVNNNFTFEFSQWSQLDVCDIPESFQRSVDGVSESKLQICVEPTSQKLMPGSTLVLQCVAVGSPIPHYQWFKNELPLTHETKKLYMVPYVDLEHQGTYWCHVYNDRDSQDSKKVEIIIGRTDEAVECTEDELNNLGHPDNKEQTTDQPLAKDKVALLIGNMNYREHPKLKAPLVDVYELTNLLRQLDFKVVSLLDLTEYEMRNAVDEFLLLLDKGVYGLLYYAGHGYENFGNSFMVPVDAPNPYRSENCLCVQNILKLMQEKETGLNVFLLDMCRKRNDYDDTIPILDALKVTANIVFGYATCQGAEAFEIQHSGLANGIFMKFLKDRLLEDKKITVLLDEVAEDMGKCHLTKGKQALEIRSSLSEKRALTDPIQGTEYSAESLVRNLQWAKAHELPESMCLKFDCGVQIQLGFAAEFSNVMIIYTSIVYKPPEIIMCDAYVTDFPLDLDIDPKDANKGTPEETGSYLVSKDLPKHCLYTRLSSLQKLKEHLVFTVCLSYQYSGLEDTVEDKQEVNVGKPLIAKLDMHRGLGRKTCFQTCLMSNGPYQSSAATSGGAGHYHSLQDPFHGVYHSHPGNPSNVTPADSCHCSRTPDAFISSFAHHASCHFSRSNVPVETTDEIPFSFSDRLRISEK
Format: biochemical
Method: MALT1 protease activity was assessed in an in vitro assay using a tetrapeptide as substrate and full-length MALT1 protein His-MALT1(1-824) purified from baculovirus-infected insect cells. The tetrapeptide substrate is Ac-LRSR-AMC (SM Biochemicals) with Km measured at around 100 μM.
The final assay buffer includes 1 nM (Assay 2) or 2 nM (Assay 1) of MALT1 full-length protein, 50 μM Ac-LRSR-AMC substrate, 50 mM Tris pH 7.5, 600 mM Sodium Citrate, 1 mM DTT, 1 mM EDTA, and 0.05% BSA in 384-well plate format using black microtiter square well plates (Optiplate 384-F, Perkin Elmer).
Test compounds were dissolved in 100% DMSO at stock of 10 mM, with final DMSO concentration 0.1%. Test compounds were pre-incubated with MALT1 protein for 2 h at room temperature. Substrate was added after the pre-incubation and fluorescence signal was measured using Envision at excitation 355 nm and emission 460 nm after 8 hr incubation at RT. Increase in the assay signal was linear over this period and proportional with increase in the enzyme content.
The fluorescence units were transformed to percentage of remaining activity by using the high control (HC, median of fluorescence signal from wells containing MALT1 protein, substrate, and DMSO) and low control (LC, median of fluorescence signal from wells with substrate only) with the formula below: […]
IC50 and Hill coefficients were obtained using Graph Pad Prism (Graph Pad software, Inc, USA) with non-linear regression analysis.

Compound	IC50
CC(C)(O)c1ncc(NC(=O)[C@H]2CC3(CCC3)c3c2cnc2cc(F)nn32)cc1C(F)(F)F (single isomer, unassigned) [Example 152, 2′-fluoro-N-(6-(2-hydroxypropan-2-yl)-5-(trifluoromethyl)pyridin-3-yl)-6′,7′-dihydrospiro[cyclobutane-1,8′-cyclopenta[e]pyrazolo[1,5-a]pyrimidine]-6′-carboxamide]	100 to 1000 nM
Cc1cc2cc(F)c3c(n2n1)C(C)(C)C[C@H]3C(=O)Nc1cnc(-n2nccn2)c(Cl)c1 (single isomer, unassigned) [Example 156, N-(5-chloro-6-(2H-1,2,3-triazol-2-yl)pyridin-3-yl)-5-fluoro-2,8,8-trimethyl-7,8-dihydro-6H-cyclopenta[e]pyrazolo[1,5-a]pyridine-6-carboxamide]	≥ 1000 nM
CC1(C)C[C@@H](C(=O)Nc2cc(N=S(C)(C)=O)nc(C(F)(F)F)c2)c2cnc3cc(F)nn3c21 (single isomer, unassigned) [Example 127, N-(2-((dimethyl(oxo)-λ^6-sulfaneylidene)amino)-6-(trifluoromethyl)pyridin-4-yl)-2-fluoro-8,8-dimethyl-7,8-dihydro-6H-cyclopenta[e]pyrazolo[1,5-a]pyrimidine-6-carboxamide]	≥ 1000 nM
CC1(C)C[C@@H](C(=O)Nc2cnc(-n3nccn3)c(C(F)(F)F)c2)c2cnc3cc(F)nn3c21 (single isomer, unassigned) [Example 150, N-(6-(2H-1,2,3-triazol-2-yl)-5-(trifluoromethyl)pyridin-3-yl)-2-fluoro-8,8-dimethyl-7,8-dihydro-6H-cyclopenta[e]pyrazolo[1,5-a]pyrimidine-6-carboxamide]	10 to 100 nM
CC1(C)C[C@@H](C(=O)Nc2cnc(C(=O)NC3CC3)c(C(F)F)c2)c2cnc3cc(Cl)nn3c21 (single isomer, unassigned) [Example 172]	≥ 1000 nM
CC1(C)CC(C(=O)Nc2cnc(-n3cc(C4COC4)nn3)c(Cl)c2)c2cnc3cc(Cl)nn3c21 (centres unmarked) [Example 119, 2-chloro-N-(5-chloro-6-(4-(oxetan-3-yl)-1H-1,2,3-triazol-1-yl)pyridin-3-yl)-8,8-dimethyl-7,8-dihydro-6H-cyclopenta[e]pyrazolo[1,5-a]pyrimidine-6-carboxamide]	100 to 1000 nM
Cc1nnn(-c2ncc(NC(=O)[C@H]3CC(C)(C)c4c3cnc3cc(Cl)nn43)cc2Cl)n1 (single isomer, unassigned) [Example 140, 2-chloro-N-(5-chloro-6-(5-methyl-2H-tetrazol-2-yl)pyridin-3-yl)-8,8-dimethyl-7,8-dihydro-6H-cyclopenta[e]pyrazolo[1,5-a]pyrimidine-6-carboxamide]	100 to 1000 nM
Cc1c(F)nn2c3c(cnc12)C(C(=O)Nc1cnc(-n2nccn2)c(Cl)c1)CC3(C)C (single isomer, unassigned) [Example 114, N-(5-chloro-6-(2H-1,2,3-triazol-2-yl)pyridin-3-yl)-2-fluoro-3,8,8-trimethyl-7,8-dihydro-6H-cyclopenta[e]pyrazolo[1,5-a]pyrimidine-6-carboxamide]	100 to 1000 nM
CC1(C)CC(C(=O)Nc2cnc(OC3CC3)c(Cl)c2)c2cnc3cc(Cl)nn3c21 (single isomer, unassigned) [Example 74, 2-chloro-N-(5-chloro-6-cyclopropoxypyridin-3-yl)-8,8-dimethyl-7,8-dihydro-6H-cyclopenta[e]pyrazolo[1,5-a]pyrimidine-6-carboxamide]	≥ 1000 nM
CC1(C)C[C@@H](C(=O)Nc2cnc(-n3nccn3)c(C(F)F)c2)c2cnc3cc(Cl)nn3c21 (single isomer, unassigned) [Example 46, 2-chloro-N-(5-(difluoromethyl)-6-(2H-1,2,3-triazol-2-yl)pyridin-3-yl)-8,8-dimethyl-7,8-dihydro-6H-cyclopenta[e]pyrazolo[1,5-a]pyrimidine-6-carboxamide]	≥ 1000 nM
CC1(C)O[C@H](C(=O)Nc2cnc(-n3nccn3)c(Cl)c2)c2cnc3cc(Cl)nn3c21 (single isomer, unassigned) [Example 71, 2-chloro-N-(5-chloro-6-(2H-1,2,3-triazol-2-yl)pyridin-3-yl)-8,8-dimethyl-6,8-dihydrofuro[3,4-e]pyrazolo[1,5-a]pyrimidine-6-carboxamide]	100 to 1000 nM
C[C@@]1(C(F)(F)F)C[C@@H](C(=O)Nc2cnc(-n3nccn3)c(Cl)c2)c2cnc3cc(F)nn3c21 (single isomer, unassigned) [Example 185]	< 10 nM
CC1(C)CC(C(=O)Nc2cnc(N3CCCC3=O)c(Cl)c2)c2cnc3cc(F)nn3c21 (centres unmarked) [Example 175, N-(5-chloro-6-(2-oxopyrrolidin-1-yl)pyridin-3-yl)-2-fluoro-8,8-dimethyl-7,8-dihydro-6H-cyclopenta[e]pyrazolo[1,5-a]pyrimidine-6-carboxamide]	≥ 1000 nM
CC1(C)CC(C(=O)Nc2cnc(OC(F)F)c(C#N)c2)c2cnc3cc(C(F)F)nn3c21 (single isomer, unassigned) [Example 126, N-(5-cyano-6-(difluoromethoxy)pyridin-3-yl)-2-(difluoromethyl)-8,8-dimethyl-7,8-dihydro-6H-cyclopenta[e]pyrazolo[1,5-a]pyrimidine-6-carboxamide]	10 to 100 nM
CCO[C@@]1(C(F)(F)F)C[C@H](C(=O)Nc2cnc(-n3nccn3)c(Cl)c2)c2cnc3cc(Cl)nn3c21 (single isomer, unassigned) [Example 168, (trans)-2-chloro-N-(5-chloro-6-(2H-1,2,3-triazol-2-yl)pyridin-3-yl)-8-ethoxy-8-(trifluoromethyl)-7,8-dihydro-6H-cyclopenta[e]pyrazolo[1,5-a]pyrimidine-6-carboxamide]	100 to 1000 nM
CC1(C)C[C@@H](C(=O)Nc2ccnc(C(F)(F)F)c2)c2cnc3cc(C(F)F)nn3c21 (single isomer, unassigned) [Example 98, 2-(difluoromethyl)-8,8-dimethyl-N-(2-(trifluoromethyl)pyridin-4-yl)-7,8-dihydro-6H-cyclopenta[e]pyrazolo[1,5-a]pyrimidine-6-carboxamide]	≥ 1000 nM
Cc1cc2c(F)cc3c(n2n1)C(C)(C)CC3C(=O)Nc1cnc(-n2nccn2)c(Cl)c1 (centres unmarked) [Example 171, N-(5-chloro-6-(2H-1,2,3-triazol-2-yl)pyridin-3-yl)-4-fluoro-2,8,8-trimethyl-7,8-dihydro-6H-cyclopenta[e]pyrazolo[1,5-a]pyridine-6-carboxamide]	10 to 100 nM
CC(C)(C)C1OC(=O)c2cc(NC(=O)C3CC4(CCC4)c4c3cnc3cc(F)nn43)cnc21 (centres unmarked) [Example 166, N-(7-(tert-butyl)-5-oxo-5,7-dihydrofuro[3,4-b]pyridin-3-yl)-2′-fluoro-6′,7′-dihydrospiro[cyclobutane-1,8′-cyclopenta[e]pyrazolo[1,5-a]pyrimidine]-6′-carboxamide]	≥ 1000 nM
CC1(C)C[C@@H](C(=O)Nc2cnc(OC(F)F)c(Cl)c2)c2cnn3cc(Cl)nc3c21 (single isomer, unassigned) [Example 190, 2-chloro-N-(5-chloro-6-(difluoromethoxy)pyridin-3-yl)-9,9-dimethyl-8,9-dihydro-7H-cyclopenta[d]imidazo[1,2-b]pyridazine-7-carboxamide]	100 to 1000 nM
C[C@@H](O)c1cnn(-c2ncc(NC(=O)[C@@H]3CC(C)(C)c4c3cnc3cc(Cl)nn43)cc2Cl)n1 (single isomer, unassigned) [Example 52, 2-chloro-N-(5-chloro-6-(4-(1-hydroxyethyl)-2H-1,2,3-triazol-2-yl)pyridin-3-yl)-8,8-dimethyl-7,8-dihydro-6H-cyclopenta[e]pyrazolo[1,5-a]pyrimidine-6-carboxamide]	100 to 1000 nM
